The test system of series [1] is colon cancer cell line SW480. Briefly: Cell proliferation assay using crystal violet, SW480. The format is cell-based. The following applies: Homo sapiens, n = 3, 24 h incubation. As for the experimental part:
(§1) For quantification, cells are treated with crystal violet, a dye that stains proteins. After washing away of excess dye, the remaining crystal violet is dissolved in a sodium citrate solution. The solution is analyzed photometrically at 590 nm. The optical density of this solution depends on the concentration of crystal violet and therefore on the amount of cells. […] To reduce effects of evaporation, only the inner 60 wells of 96-well plates (coated with 0.1% gelatine solution for studies with HUVEC) were used for experiments.
(§2) Cells were seeded at a density of 5 000 cells per well in 100 μl growth medium (HUVEC) or 20 000 (HCT116), 15 000 (SW480 and 518A2) or 10 000 (HT29) cells per well in 200 μl growth medium in 55 wells per plate. 5 wells were filled with medium only. Additionally, a 96-well plate with cells in 12 wells and medium in 6 wells was prepared as T0-plate. The next day, additional 98 μl of growth medium were added in every well (only HUVEC).
(§3) Cells were treated with 2 μl of the working solution 24 h after seeding. Final compound concentrations in the well were 10 μM for the first round of screening. The final DMSO concentration was 0.5%. […] After finishing the addition of compounds, the T0-plate was stained with crystal violet for giving the cell density at time point zero. Before staining, the growth medium was poured away. Wells were filled with 50 μl crystal violet solution for 10 min. Then the staining solution was washed away with water. Since crystal violet is environmentally hazardous the waste was collected and disposed in an appropriate manner. After air drying of the plates the crystal violet on the cells was dissolved in 100 μl of sodium citrate solution, and the absorption was measured with a plate reader at 590 nm.
(§4) Mean values were corrected with the absorption of stained medium and the corrected absorption of T0 cells. Cell growth was calculated relative to DMSO control for data comparison. IC50 values (50% inhibition of cell growth) were determined with GraphPad Prism® (Version 4.03) using nonlinear regression (sigmoidal dose-response with variable slope).
(§5) Compounds showing an inhibition of proliferation of more than 50% at a concentration of 10 μM were defined as active, and their IC50-values were determined.

Series [2] relates to colon cancer cell line HT29. The experiment in a line: Cell proliferation assay using crystal violet, HT29. It is filed as cell-based. The conditions noted are these: Homo sapiens, HT-29, n = 3, 24 h incubation. The method, then:
as §1, §2, §3
Mean values were corrected with the absorption of stained medium and the corrected absorption of T0 cells. Cell growth was calculated relative to DMSO control for data comparison. IC50 values (50% inhibition of cell growth) were determined with GraphPad Prism® (Version 4.03) using nonlinear regression (sigmoidal dose-response with variable slope). […]

Series [3] deals with melanoma cell line 518A2. Briefly: Cell proliferation assay using crystal violet, 518A2. The conditions noted are these: Homo sapiens, 518A2; crystal violet assay; n = 3; 48 h incubation. It is filed as cell-based. The method, then: as §1, §2, §3, §4, §5
Series [4] has as its system healthy peripheral blood mononuclear cells (PBMC). Briefly: Effect on healthy PBMC (CellTiter-Blue viability). The conditions noted are these: 48 h incubation; one individual; FIG. 8. As for the experimental part: FIG. 8: Effect of compounds 1 and 22 according to the invention as well as the control drugs fludarabine and cyclophosphamide on the viability of healthy peripheral blood mononuclear cells (PBMC) in suspension culture after 48 h incubation. Data points represent one individual calculated in relation to the control. Viability was measured using the CellTiter Blue assay (Promega, Madison, Wis., USA), and cells incubated in solvent only were used as control.
For quantification, cells were treated with resazurin (7-hydroxy-3H-phenoxazin-3-one 10-oxide) as indicator of cell viability. The method is based on the finding that living cells are able to reduce the non-fluorescent blue dye into the pink colored and highly red fluorescent resorufine. After adding the substrate the cells are incubated for 2 to 4 hours. Then, the solution is analyzed at 560 nm Ex/590 nm Em on a fluorometer. Appropriate cell density for seeding and duration of treatment with the substrate were determined in preliminary experiments.
First, cells were seeded in 96 well plates and then growth medium was added to each well to get a final volume of 80 μl. Compounds to be tested were diluted with medium from a 10 mM stock solution in DMSO to get different concentrations, and 20 μl of these solutions were added to the wells. The final DMSO concentration was 0.5%. All treatments and controls were performed in at least triplicates. Cells were incubated at 37° C. and 5% CO2 for 48 h. Then, 20 μl substrate solution was added to the wells, plates were incubated for 3 hours and analyzed.
The impact of the compounds according to the invention on healthy cells was assessed using peripheral blood mononuclear cells (PBMC). Cell viability was tested using the CellTiter-Blue Cell Viability Assay (Promega, Madison, Wis., USA) as described in Example 7.

In the next series the test system is HUVEC. Briefly: Cell proliferation assay using crystal violet, HUVEC. The following applies: Homo sapiens, n = 3, 48 h incubation, read-out: IC50 (nM) HUVEC (converted). The format is cell-based. The method, then:
as §1, §2, §3
(§6) Mean values were corrected with the absorption of stained medium and the corrected absorption of T0 cells. Cell growth was calculated relative to DMSO control for data comparison.

For another series, the system named is HCT116 cell line. The experiment in a line: Cell proliferation assay using crystal violet, HCT116. The format is cell-based. The following applies: Homo sapiens, HCT-116, n = 3, 24 h incubation. As for the experimental part:
as §1, §2, §3, §6

The subject of series [5] is melanoma cell line 518A2. The conditions noted are these: stated as comparison, no experiment described; read-out: IC50 value of cisplatin, comparison for melanoma cell line 518A2; cited from earlier work.
For series [6], the system named is CLL cell lines MEC-1 and MEC-2. Briefly: Annexin V-FITC / propidium iodide staining, apoptosis in CLL cell lines. It is filed as cell-based. The conditions noted are these: MEC-1 cells, 500 nM, 48 hours (FIG. 4b); called an outlier, not seen after 24 hours. As for the experimental part:
Apoptosis was detected using propidium iodide/Annexin V FACS staining (Bender MedSystems).
Annexin V binds to phosphatidylserine which is exposed at the cell surface during execution of apoptosis. First, cells were seeded out at a density of 1.5 to 2.5 million cells per well in 12 well plates and then growth medium was added to each well to get a final volume of 2.5 ml. Compounds to be tested were diluted with medium from a 10 mM stock solution in DMSO to get different concentrations and cells were treated with 25 μl of these solutions. The final DMSO concentration was 0.5%. All treatments and controls were performed twice. Cells were incubated at 37° C. and 5% CO2 for 24 h and 48 h. Then, growth medium was removed by centrifugation, the supernatant discarded and 200 μl of an Annexin V solution were added. After 10 minutes in the dark, cells were washed once with Annexin buffer and the solution removed by centrifugation. The supernatant was discarded again and cells were suspended in 200 μl of a propidium iodide solution. Cells were measured by flow cytometry with a total of 10 000 events. Data were analyzed with CellQuest Pro™.
Compounds 1 and 22 were also tested on the CLL cell lines MEC-1 and MEC-2 in comparison with fludarabine and cyclophosphamide, two compounds used in the treatment of hematological malignancies (MEC-1 is a fludarabine-resistant cell line).

Each structure is given as a SMILES string. Where two headings read alike, the source gives them in different places.

On to `COc1cc(C(=O)/C=C/C=C/c2ccccc2SC)cc(OC)c1OC`, for which the IC50 (commonly the concentration that gives 50% inhibition) was determined as 260 nM in series [1], 240 nM in series [2] and 160 nM in the series on melanoma cell line 518A2 [3].
For the compound `Nc1nc(F)nc2c1ncn2[C@@H]1O[C@H](CO)[C@@H](O)[C@@H]1O` [fludarabine, reference compound], the “viability of healthy PBMC in suspension culture (toxicity)” value in series [4] was “the most toxic of the tested compounds”.
On to `COc1cccc(/C=C/C=C/C(=O)c2ccccc2OC)c1`, for which the IC50 was 8810 nM in the series on HUVEC and more than 10000 nM in the series on HCT116 cell line.
The matching figures for `COc1ccc(C(=O)/C=C/c2ccc(OC)c3ccccc23)cc1OC`: more than 10000 nM and more than 10000 nM.
As to `COc1cccc(/C=C/C=C/C(=O)c2cc(OC)c(OC)c(OC)c2)c1`, the IC50 in the series with HUVEC is 3210 nM; with HCT116 cell line, 4500 nM.
In the same order, the values of `C=Cc1ccccc1/C=C/C=C/C(=O)c1ccccc1OC` are 760 nM and 804 nM.
`COc1ccccc1/C=C/C=C/C(=O)c1cc(OC)c(O)c(OC)c1`: the half-maximal inhibitory concentration (IC50) in series [1] was 2680 nM; in series [2] it was 5790 nM; in the series with melanoma cell line 518A2 [3], 2750 nM.
Take `COc1cc(C(=O)/C=C/C=C/c2ccccc2)cc(OC)c1OC`: the IC50 in the series on HCT116 cell line was 4340 nM.
`N.N.[Cl][Pt][Cl]` [cisplatin]: the IC50 in the series with melanoma cell line 518A2 [5] was approximately 10 µM.
As for `CCOc1ccccc1C(=O)/C=C/c1ccc(OC)c2ccccc12`, the concentration for half-maximal inhibition (IC50) (in series [1]; in the series on melanoma cell line 518A2 [3]) was more than 10000 nM each time.
Regarding `O=P1(N(CCCl)CCCl)NCCCO1` (stereo not drawn) [cyclophosphamide, reference compound], the apoptosis induction in series [6] is 40%. For the same compound, in series [4], the “viability of healthy PBMC in suspension culture (toxicity)” value was “did not influence viability”.
With `COc1ccccc1/C=C/C=C/C(=O)c1ccc(Cl)c([N+](=O)[O-])c1`, the IC50 in the series with HUVEC was 5630 nM.
`COc1ccccc1C(=O)/C=C/c1ccc(OC)c2ccccc12` gave an IC50 in the series with HCT116 cell line of 6850 nM.
As to `COc1cc(C(=O)/C=C/C=C/c2ccccc2Cl)cc(OC)c1OC`, the IC50 with HUVEC was 1770 nM.
